Test results reported in US20260001914A1, “MACROCYCLIC PEPTIDES TARGETING KRAS” (Merck Sharp & Dohme LLC, priority 2022, published 2026).
pEC50: −log10 of the molar value. *1 amine or outer side, *2 acyl side, *3 side chain or, on linkers, in order; H or OH if unused. Where a SMILES comes first, the peptide text is derived from it. Bridges are numbered along the chain shown (N, C = ends). [ ]: non-standard residue; d: D form. Ala(pyrimidin-5-yl) = N[C@@H](Cc1cncnc1)C(=O)O; NMe3Pal(6-Me) = CN[C@@H](Cc1ccc(C)nc1)C(=O)O; X36 = CN([C@@H](Cc1cnn(C)c1)C(=O)[*:2])[*:1]; X67 = O=C([C@H](Cc1ncc(Cl)cn1)N[*:1])[*:2]; 3Pal(6-OMe) = COc1ccc(C[C@H](N)C(=O)O)cn1; X10 = CS(=O)(=O)CCCCN(CC(=O)[*:2])[*:1]; X11 = CC(C)(F)CC[C@H](N[*:1])C(=O)[*:2]; X46 = O=C([C@H](Cc1cccnc1F)N[*:1])[*:2]; Phe(4-F) = N[C@@H](Cc1ccc(F)cc1)C(=O)O; NHCH2CH2SCH2CO = O=C(CSCCN[*:1])[*:2]; Phe(2-F) = N[C@@H](Cc1ccccc1F)C(=O)O; NMe3Pal = CN[C@@H](Cc1cccnc1)C(=O)O; X1 = O=C(C12CC(CN[*:1])(C1)C2)[*:2]; NMeCha = CN[C@@H](CC1CCCCC1)C(=O)O; X17 = O=C([C@H](CCCCF)N[*:1])[*:2]; X53 = C[C@@H](CSCC(=O)[*:2])N[*:1]; NMeOrn(Me) = CNCCC[C@H](NC)C(=O)O; NMeF = CN[C@@H](Cc1ccccc1)C(=O)O; PhLac = O=C(O)[C@@H](O)Cc1ccccc1; 3Pal = N[C@@H](Cc1cccnc1)C(=O)O; d3Pal = N[C@H](Cc1cccnc1)C(=O)O; Ahp(2) = CCCCC[C@H](N)C(=O)O; Cba = N[C@@H](CC1CCC1)C(=O)O; hSer = N[C@@H](CCO)C(=O)O; αMeC = C[C@](N)(CS)C(=O)O; NMeA = CN[C@@H](C)C(=O)O; Nle = CCCC[C@H](N)C(=O)O

The molecules below were run against KRAS-G12D protein (Homo sapiens, UniProt P01116, G12D) (assay: SOS-mediated nucleotide exchange assay (BODIPY-GDP / Tb-streptavidin TR-FRET)).
Format: biochemical

KRAS-G12D protein, sequence (P01116 1-188 isoform P01116-2 G12D): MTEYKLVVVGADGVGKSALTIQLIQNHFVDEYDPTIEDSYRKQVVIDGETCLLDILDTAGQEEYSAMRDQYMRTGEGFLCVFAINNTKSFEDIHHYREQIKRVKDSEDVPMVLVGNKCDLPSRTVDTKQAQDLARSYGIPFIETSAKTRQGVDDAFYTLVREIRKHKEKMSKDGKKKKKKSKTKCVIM

Going from CCCC[C@@H]1NC(=O)[C@H](Cc2cnc(C#N)nc2)NC(=O)[C@H](C)N(C)C(=O)[C@H](Cc2ccccc2)OC(=O)C23CC(CNC(=O)[C@H](Cc4ccccc4)N(C)C(=O)[C@H](CCCC)NC(=O)[C@H](Cc4ccccc4F)NC1=O)(C2)C3 (single isomer, unassigned) [compound 314, cyclo(FLac-NMeA-AlaPyrim4CN-Nle-Phe2F-Nle-NMeF-amBCP)] to CCCC[C@@H]1NC(=O)[C@H](Cc2ncc(Cl)cn2)NC(=O)[C@H](C)N(C)C(=O)[C@H](Cc2ccccc2)OC(=O)C23CC(CNC(=O)[C@H](Cc4ccccc4)N(C)C(=O)[C@H](CCCC)NC(=O)[C@H](Cc4ccccc4F)NC1=O)(C2)C3 [compound 321, cyclo(FLac-NMeA-Ala2Pyrim5Cl-Nle-Phe2F-Nle-NMeF-amBCP)] (cyclo([NMeA][X67][Nle][Phe(2-F)][Nle][NMeF][X1][PhLac])), the pEC50 falls from 7.60 to 6.21 (1.39 log units). The first is the more potent here.

C[C@H]1C(=O)N[C@@H](Cc2cncnc2)C(=O)N[C@@H](CC2CCC2)C(=O)N[C@@H](Cc2ccccc2F)C(=O)N[C@@H](CCC(C)(C)F)C(=O)N(C)[C@@H](Cc2ccccc2)C(=O)NCC23CC(C2)(C3)C(=O)O[C@@H](Cc2ccccc2)C(=O)N1C [compound 225, cyclo(FLac-NMeA-PyrimAla-cBuA-Phe2F-hL3F-NMeF-amBCP)] (cyclo([Cba][Phe(2-F)][X11][NMeF][X1][PhLac][NMeA][Ala(pyrimidin-5-yl)])) and CCCC[C@@H]1NC(=O)[C@H](Cc2ccccc2F)NC(=O)[C@H](CCCCF)NC(=O)[C@H](Cc2cncnc2)NC(=O)[C@H](C)N(C)C(=O)[C@H](Cc2ccccc2)OC(=O)C23CC(CNC(=O)[C@H](Cc4ccccc4)N(C)C1=O)(C2)C3 [compound 130, cyclo(FLac-NMeA-PyrimAla-NleF-Phe2F-Nle-NMeF-amBCP)] (cyclo([NMeA][Ala(pyrimidin-5-yl)][X17][Phe(2-F)][Nle][NMeF][X1][PhLac])) are within 0.2 log units of each other in pEC50: 8.73 for the first, 8.61 for the second.

Going from CCCCC[C@@H]1NC(=O)[C@H](Cc2ccc(OC)cc2)NC(=O)[C@H](CC2CCC2)NC(=O)[C@H](Cc2cncnc2)NC(=O)[C@H](CCCNC)N(C)C(=O)[C@H](Cc2ccccc2)NC(=O)CSC[C@@](C)(C(N)=O)NC(=O)[C@H](Cc2ccc(C)nc2)N(C)C1=O [compound 394, cyclo(F-NMeOmMe-PyrimAla-cBuA-TyrOMe-Ahp-NMe3Pal4Me-aMeCl-ClAc)] ({CH2CO}-F[NMeOrn(Me)][Ala(pyrimidin-5-yl)][Cba]Y(Me)[Ahp(2)][NMe3Pal(6-Me)][αMeC]-NH2; thioether N-8) to CCCCC[C@@H]1NC(=O)[C@H](Cc2ccc(OC)cc2)NC(=O)[C@H](CC2CCC2)NC(=O)[C@H](Cc2cccnc2)NC(=O)[C@H](CCCNC(=N)N)NC(=O)[C@H](Cc2ccccc2)NC(=O)CSC[C@@](C)(C(N)=O)NC(=O)[C@H](Cc2ccc(C)nc2)N(C)C1=O [compound 377, cyclo(F-R-3Pal-cBuA-TyrOMe-Ahp-NMe3Pal4Me-aMeCl-ClAc)] ({CH2CO}-FR[3Pal][Cba]Y(Me)[Ahp(2)][NMe3Pal(6-Me)][αMeC]-NH2; thioether N-8), the pEC50 rises from 7.18 to 8.09 (0.91 log units). The second is the more potent here.

Compared with CCCC[C@@H]1NC(=O)[C@H](Cc2cccnc2F)NC(=O)[C@H](C)N(C)C(=O)[C@H](Cc2ccccc2)OC(=O)C23CC(CNC(=O)[C@H](Cc4cccnc4)N(C)C(=O)[C@H](CCCC)NC(=O)[C@H](Cc4ccccc4F)NC1=O)(C2)C3 [compound 117, cyclo(FLac-NMeA~3Pal2F-Nle-Phe2F-Nle-NMe3Pal-amBCP)] (cyclo([NMe3Pal][X1][PhLac][NMeA][X46][Nle][Phe(2-F)][Nle])), CCCC[C@@H]1NC(=O)[C@H](Cc2cncnc2)NC(=O)[C@H](C)N(C)C(=O)[C@H](Cc2ccccc2)OC(=O)C23CC(CNC(=O)[C@H](Cc4cccnc4)N(C)C(=O)[C@H](CCCC)NC(=O)[C@H](Cc4ccccc4F)NC1=O)(C2)C3 [compound 237, cyclo(FLac-NMeA-PyrimAla-Nle-Phe2F-Nle-NMe3Pal-amBCP)] (cyclo([NMe3Pal][X1][PhLac][NMeA][Ala(pyrimidin-5-yl)][Nle][Phe(2-F)][Nle])) is 1.63 log units higher in pEC50: 5.84 for the first, 7.47 for the second. The second is the more potent here.

Going from CCCC[C@@H]1NC(=O)[C@H](Cc2ccc(O)cc2)NC(=O)[C@H](CC(C)C)NC(=O)[C@H](Cc2ccc(O)cc2)NC(=O)[C@H](CCCNC(=N)N)NC(=O)[C@H](Cc2ccccc2)NC(=O)CSC[C@@H](C(N)=O)NC(=O)[C@H](Cc2ccccc2)N(C)C1=O [compound 1, cyclo(F-R-Y-L-Y-Nle-NMeF-Cl-ClAc)] to CCC[C@@H]1NC(=O)[C@H](Cc2ccc(O)cc2)NC(=O)[C@H](CC(C)C)NC(=O)[C@H](Cc2ccc(O)cc2)NC(=O)[C@H](CCCNC(=N)N)NC(=O)[C@H](Cc2ccccc2)NC(=O)CSC[C@@H](C(N)=O)NC(=O)[C@H](Cc2ccccc2)N(C)C1=O [compound 16, cyclo(F-R-Y-L-Y-Nva-NMeF-Cl-ClAc)], the pEC50 falls from 6.04 to 5.44 (0.60 log units). The first is the more potent here.

Compared with CCCC[C@@H]1NC(=O)[C@H](Cc2ccccc2F)NC(=O)[C@H](CC2CCC2)NC(=O)[C@H](CCO)NC(=O)[C@H](CCCNC(=N)N)NC(=O)[C@H](Cc2ccccc2)NC(=O)CSC[C@@](C)(C(N)=O)NC(=O)[C@H](Cc2ccccc2)N(C)C1=O [compound 50, cyclo(F-R-hS-cBuA-Phe2F-Nle-NMeF-aMeCl-ClAc)] ({CH2CO}-FR[hSer][Cba][Phe(2-F)][Nle][NMeF][αMeC]-NH2; thioether N-8), CCCCC[C@@H]1NC(=O)[C@H](Cc2ccc(OC)cc2)NC(=O)[C@H](CC2CCC2)NC(=O)[C@H](Cc2ccc(OC)nc2)NC(=O)[C@H](CCCNC(=N)N)NC(=O)[C@H](Cc2ccccc2)NC(=O)CSC[C@@](C)(C(N)=O)NC(=O)[C@H](Cc2ccccc2)N(C)C1=O [compound 365, cyclo(F-R-40Me3Pal-cBuA-TyrOMe-Ahp-NMeF-aMeCl-ClAc)] ({CH2CO}-FR[3Pal(6-OMe)][Cba]Y(Me)[Ahp(2)][NMeF][αMeC]-NH2; thioether N-8) is 1.00 log units higher in pEC50: 6.30 for the first, 7.30 for the second. The second is the more potent here.

Compared with CCCCC[C@@H]1NC(=O)[C@H](Cc2ccc(OC)cc2)NC(=O)[C@H](CC2CCC2)NC(=O)[C@H](Cc2ccc(N(C)C(=N)NC)cc2)NC(=O)[C@H](CCCNC(=N)N)NC(=O)[C@H](Cc2ccccc2)NC(=O)CSC[C@@](C)(C(N)=O)NC(=O)[C@H](Cc2ccccc2)N(C)C1=O [compound 382, cyclo(F-R-Phe4GnMeMe-cBuA-TyrOMe-Ahp-NMeF-aMeCl-ClAc)], CCCC[C@@H]1NC(=O)[C@H](Cc2ccc(OC)cc2)NC(=O)[C@H](CC2CCC2)NC(=O)[C@@H](Cc2cccnc2)NC(=O)[C@H](CCCNC(=N)N)NC(=O)[C@H](Cc2ccccc2)NC(=O)CSC[C@H](C)NC(=O)[C@H](Cc2ccccc2)N(C)C1=O [compound 180, cyclo(F-R-d3Pal-cBuA-TyrOMe-Nle-NMeF-Smcysteamine-ClAc)] (cyclo([Cba]Y(Me)[Nle][NMeF][X53]FR[d3Pal])) is 1.38 log units lower in pEC50: 8.80 for the first, 7.42 for the second.

Compared with CCCC[C@@H]1NC(=O)[C@H](Cc2ccccc2F)NC(=O)C(CC2CC(F)(F)C2)NC(=O)[C@H](Cc2cncnc2)NC(=O)[C@H](C)N(C)C(=O)[C@H](Cc2ccccc2)OC(=O)C23CC(CNC(=O)[C@H](Cc4cccnc4)N(C)C1=O)(C2)C3 (single isomer, unassigned) [compound 122, cyclo(FLac-NMeA-PyrimAla-rF2Cba-Phe2F-Nle-NMe3Pal-amBCP)], CCCC[C@@H]1NC(=O)[C@H](Cc2cccnc2)NC(=O)[C@H](C)N(C)C(=O)[C@H](Cc2ccccc2)OC(=O)C23CC(CNC(=O)[C@H](Cc4cnn(C)c4)N(C)C(=O)[C@H](CCCC)NC(=O)[C@H](Cc4ccccc4F)NC1=O)(C2)C3 [compound 403, cyclo(FLac-NMeA-3Pal-Nle-Phe2F-Nle-NMeAla4PyzlMe-amBCP)] (cyclo([3Pal][Nle][Phe(2-F)][Nle][X36][X1][PhLac][NMeA])) is 1.14 log units higher in pEC50: 6.63 for the first, 7.77 for the second. The second is the more potent here.

First: CCCCC[C@@H]1NC(=O)[C@H](Cc2ccc(OC)cc2)NC(=O)[C@H](CC2CCC2)NC(=O)[C@H](Cc2cccnc2)NC(=O)[C@H](C)N(C)C(=O)[C@H](Cc2ccccc2)OC(=O)C23CC(CNC(=O)[C@H](Cc4ccccc4)N(C)C1=O)(C2)C3 [compound 227, cyclo(FLac-NMeA-3Pal-cBuA-TyrOMe-Ahp-NMeF-amBCP)] (cyclo([3Pal][Cba]Y(Me)[Ahp(2)][NMeF][X1][PhLac][NMeA]))
Second: CCCC[C@@H]1NC(=O)[C@H](Cc2cccnc2)NC(=O)[C@H](C)N(C)C(=O)[C@H](Cc2ccccc2)OC(=O)C23CC(CNC(=O)[C@H](CC4CCCCC4)N(C)C(=O)[C@H](CCCC)NC(=O)[C@H](Cc4ccccc4F)NC1=O)(C2)C3 [compound 232, cyclo(FLac-NMeA-3Pal-Nle-Phe2F-Nle-NMeCha-amBCP)] (cyclo([3Pal][Nle][Phe(2-F)][Nle][NMeCha][X1][PhLac][NMeA]))
The pEC50 of the first is 1.89 log units higher: 7.42 for the first, 5.53 for the second.

First: CCCC[C@@H]1NC(=O)[C@H](Cc2ccccc2F)NC(=O)[C@H](CC2CCC2)NC(=O)[C@@H](Cc2cccnc2)NC(=O)[C@H](CCCNC(=N)N)NC(=O)[C@H](Cc2ccccc2)NC(=O)C23CC(CNC(=O)[C@H](Cc4cccnc4)N(C)C1=O)(C2)C3 [compound 103, cyclo(F-R-d3Pal-cBuA-Phe2F-Nle-NMe3Pal-amBCP)] (cyclo(FR[d3Pal][Cba][Phe(2-F)][Nle][NMe3Pal][X1]))
Second: CCCC[C@@H]1NC(=O)[C@H](Cc2cccnc2)NC(=O)CN(CCCCS(C)(=O)=O)C(=O)[C@H](Cc2ccccc2)OC(=O)C23CC(CNC(=O)[C@H](Cc4cccnc4)N(C)C(=O)[C@H](CCCC)NC(=O)[C@H](Cc4ccccc4F)NC1=O)(C2)C3 [compound 407, cyclo(FLac-NOHmsbGly-3Pal-Nle-Phe2F-Nle-NMe3Pal-amBCP)] (cyclo([3Pal][Nle][Phe(2-F)][Nle][NMe3Pal][X1][PhLac][X10]))
The pEC50 of the first is 2.06 log units higher: 8.50 for the first, 6.44 for the second.

Compared with COc1ccc(C[C@@H]2NC(=O)[C@H](CC3CCC3)NC(=O)[C@H](Cc3cccnc3)NC(=O)[C@H](CCCNC(=N)N)NC(=O)[C@H](Cc3ccccc3)NC(=O)CSC[C@](C)(C(N)=O)NC(=O)[C@@H]3CCCCCC[C@H](NC2=O)C(=O)N3C)cc1 [SEQ ID NO: 188, cyclo(F-R-3Pal-cBuA-TyrOMe-RdHagNMeHag-aMeC-C1Ac)], CCCC[C@@H]1NC(=O)[C@H](Cc2ccc(O)cc2)NC(=O)[C@H](CC(C)C)NC(=O)[C@H](Cc2ccc(O)cc2)NC(=O)[C@H](CCCNC(=N)N)NC(=O)[C@H](Cc2ccc(F)cc2)NC(=O)CSCCNC(=O)[C@H](Cc2ccccc2)N(C)C1=O [compound 75, cyclo(Phe4F-R-Y-L-Y-Nle-NMeF-Cysteamine-ClAc)] (cyclo(LY[Nle][NMeF][NHCH2CH2SCH2CO][Phe(4-F)]RY)) is 0.92 log units lower in pEC50: 6.52 for the first, 5.60 for the second. The first is the more potent here.
